Like-named read-outs stand apart in the source and are kept apart here.
How the values were obtained:
TYK2 (h) = TYK2 (h) (Homo sapiens (Human), UniProt P29597); test: In vitro activity assay of TYK2 kinase (radiometric 33P-ATP, Eurofins); format: biochemical; details: recombinant human TYK2
Protocol: (§1) Recombinant human-derived JAK1, JAK2, JAK3, Tyk2 protease, main instruments and reagents were provided by Eurofins in the UK
(§2) JAK2, JAK3 and TYK2 dilution: 20 mM MOPS, 1 mM EDTA, 0.01% Brij-35.5% glycerol, 0.1% β-mercaptoethanol. 1 mg/mL BSA; JAK1 dilution: 20 mM TRIS, 0.2 mM EDTA, 0.1% β-mercaptoethanol, 0.01% Brij-35.5% glycerol. All compounds were prepared as 100% DMSO solutions, and the concentration of the compound reached 50 times the final measured concentration. The test compound was diluted with a 3-fold concentration gradient, the final concentration was 10 μM to 0.001 μM in total 9 concentrations, and the content of DMSO in the detection reaction was 2%. The working stock solution of the compound was added to the wells as the first component of the reaction, and then the remaining components were added according to the protocol detailed below.
TYK2 (h) was incubated with 8 mM MOPS pH 7.0, 0.2 mM EDTA, 250 μM […], 10 mM magnesium acetate and [γ-^33P]-ATP (activity and concentration were formulated as needed). Mg/ATP mixture was added to initiate the reaction. After incubating at room temperature for 40 minutes, the reaction mixture was added with 0.5% phosphoric acid to stop the reaction. Then 10 μL reaction was spotted on a P30 filter pad and washed with 0.425% phosphoric acid three times and methanol once over 4 minutes, dried, and counted scintillation.
(§3) The IC50 results were analyzed by XLFIT5 (205 formula) of IDBS Company, see Table 1 for details.

JAK2 (h) = JAK2 (h) (Homo sapiens (Human), UniProt O60674); test: In vitro activity assay of JAK2 kinase (radiometric 33P-ATP, Eurofins); format: biochemical; details: recombinant human JAK2
JAK3 (h) = JAK3 (h) (Homo sapiens (Human), UniProt P52333); test: In vitro activity assay of JAK3 kinase (radiometric 33P-ATP, Eurofins); format: biochemical; details: recombinant human JAK3
Protocol: as §1, §2
JAK3 (h) was incubated with 8 mM MOPS pH 7.0, 0.2 mM EDTA, 500 μM […], 10 mM magnesium acetate and [γ-^33P]-ATP (activity and concentration were formulated as needed). Mg/ATP mixture was added to initiate the reaction. After incubating at room temperature for 40 minutes, the reaction mixture was added with 0.5% phosphoric acid to stop the reaction. Then 10 μL the reaction solution was spotted on a P30 filter pad and washed with 0.425% phosphoric acid three times and methanol once over 4 minutes, dried, and counted scintillation.
as §3

JAK1 (h) = JAK1 (h) (Homo sapiens (Human), UniProt P23458); test: In vitro activity assay of JAK1 kinase (radiometric 33P-ATP, Eurofins); format: biochemical; details: recombinant human JAK1
[1] = system: adjuvant-induced arthritis rat model; test: In vivo drug efficacy study in an adjuvant-induced arthritis model (AIA); details: for average foot volume of arthritis rat: vehicle 2.8 mL
[2] = Pharmacokinetic (PK) assay in rat; format: in vivo; details: male SD rat; for Bioavailability: gavage vs tail vein; for Cmax: read-out: Cmax (peak concentration)
Protocol: The clear solution obtained by dissolving the test compound was injected into male mice (C57BL/6) or rats (SD) by tail vein and gavage respectively (overnight fasting, 7-8 weeks old). […] The drug concentration on blood was determined by LC-MS/MS, the related pharmacokinetic parameters were calculated by the linear logarithm trapezoid method of non atrioventricular model by WinNonlin™ Version 6.3.

[3] = 15 mg/kg p.o. bid 14 d, end of the experiment (27th day)
[4] = 15 mpk p.o. bid 14 d, end of the experiment (27th day), vehicle peak about 8.5
[5] = tail vein and gavage groups, route of the parameter and dose not given

Sequence of TYK2 (h) (P29597 whole entry): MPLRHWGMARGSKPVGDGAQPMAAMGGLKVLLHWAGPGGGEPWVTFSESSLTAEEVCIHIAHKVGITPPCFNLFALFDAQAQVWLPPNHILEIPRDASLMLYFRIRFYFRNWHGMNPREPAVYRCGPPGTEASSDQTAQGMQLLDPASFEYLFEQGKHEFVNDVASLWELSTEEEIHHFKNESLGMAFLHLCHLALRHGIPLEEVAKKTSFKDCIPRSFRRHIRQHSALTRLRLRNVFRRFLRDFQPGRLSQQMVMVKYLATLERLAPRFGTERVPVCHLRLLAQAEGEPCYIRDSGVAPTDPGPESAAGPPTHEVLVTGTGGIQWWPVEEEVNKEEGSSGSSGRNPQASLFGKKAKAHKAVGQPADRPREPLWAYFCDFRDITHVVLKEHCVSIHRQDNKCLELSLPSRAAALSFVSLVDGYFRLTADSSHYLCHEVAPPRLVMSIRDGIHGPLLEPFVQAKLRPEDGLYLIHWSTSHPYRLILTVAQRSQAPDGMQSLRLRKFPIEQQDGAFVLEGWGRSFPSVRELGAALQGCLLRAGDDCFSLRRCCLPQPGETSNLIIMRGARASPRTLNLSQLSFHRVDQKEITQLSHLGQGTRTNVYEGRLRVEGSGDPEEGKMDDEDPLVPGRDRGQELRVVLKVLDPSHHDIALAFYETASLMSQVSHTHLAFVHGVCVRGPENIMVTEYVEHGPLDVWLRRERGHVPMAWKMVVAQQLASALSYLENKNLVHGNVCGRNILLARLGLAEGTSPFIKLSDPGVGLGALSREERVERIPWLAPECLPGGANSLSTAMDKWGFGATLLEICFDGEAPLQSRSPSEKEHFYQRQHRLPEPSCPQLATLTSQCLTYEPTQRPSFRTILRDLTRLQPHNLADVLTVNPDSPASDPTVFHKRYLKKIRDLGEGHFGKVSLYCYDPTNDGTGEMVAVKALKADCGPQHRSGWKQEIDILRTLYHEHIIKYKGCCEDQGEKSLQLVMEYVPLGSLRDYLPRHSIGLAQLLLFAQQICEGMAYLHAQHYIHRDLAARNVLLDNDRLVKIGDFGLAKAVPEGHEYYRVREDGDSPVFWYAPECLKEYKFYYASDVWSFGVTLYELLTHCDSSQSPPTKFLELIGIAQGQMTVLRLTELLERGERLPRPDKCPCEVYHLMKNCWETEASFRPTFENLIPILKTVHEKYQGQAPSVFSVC
Sequence of JAK2 (h) (O60674 whole entry): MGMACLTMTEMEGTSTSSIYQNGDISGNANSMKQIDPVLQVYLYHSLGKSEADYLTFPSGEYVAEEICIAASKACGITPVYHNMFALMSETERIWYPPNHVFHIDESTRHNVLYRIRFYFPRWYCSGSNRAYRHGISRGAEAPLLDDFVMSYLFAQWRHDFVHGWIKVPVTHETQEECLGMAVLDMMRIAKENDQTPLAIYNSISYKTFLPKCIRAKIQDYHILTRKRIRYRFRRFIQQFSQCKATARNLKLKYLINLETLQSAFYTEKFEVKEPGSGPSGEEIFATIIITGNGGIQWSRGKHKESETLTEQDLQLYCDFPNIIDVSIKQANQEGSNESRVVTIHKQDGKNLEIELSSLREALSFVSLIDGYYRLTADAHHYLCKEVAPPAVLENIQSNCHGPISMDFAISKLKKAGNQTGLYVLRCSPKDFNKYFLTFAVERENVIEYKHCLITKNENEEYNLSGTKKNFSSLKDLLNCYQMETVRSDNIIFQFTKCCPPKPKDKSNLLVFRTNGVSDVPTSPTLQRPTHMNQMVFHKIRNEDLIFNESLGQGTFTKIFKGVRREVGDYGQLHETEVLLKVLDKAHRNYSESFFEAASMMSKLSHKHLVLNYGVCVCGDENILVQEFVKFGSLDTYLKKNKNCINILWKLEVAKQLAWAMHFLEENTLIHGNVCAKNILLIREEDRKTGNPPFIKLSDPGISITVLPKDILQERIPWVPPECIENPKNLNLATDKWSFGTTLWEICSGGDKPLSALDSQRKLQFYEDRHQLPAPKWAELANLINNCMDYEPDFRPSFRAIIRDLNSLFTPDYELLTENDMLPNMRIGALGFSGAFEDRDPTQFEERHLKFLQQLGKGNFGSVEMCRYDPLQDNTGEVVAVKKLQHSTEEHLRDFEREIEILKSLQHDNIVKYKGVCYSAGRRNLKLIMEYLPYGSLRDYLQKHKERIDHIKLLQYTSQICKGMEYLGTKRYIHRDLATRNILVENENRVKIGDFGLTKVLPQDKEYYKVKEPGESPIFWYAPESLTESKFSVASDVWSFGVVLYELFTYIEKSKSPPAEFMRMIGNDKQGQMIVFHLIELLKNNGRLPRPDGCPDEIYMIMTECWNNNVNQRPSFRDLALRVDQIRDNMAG
Sequence of JAK3 (h) (P52333 whole entry): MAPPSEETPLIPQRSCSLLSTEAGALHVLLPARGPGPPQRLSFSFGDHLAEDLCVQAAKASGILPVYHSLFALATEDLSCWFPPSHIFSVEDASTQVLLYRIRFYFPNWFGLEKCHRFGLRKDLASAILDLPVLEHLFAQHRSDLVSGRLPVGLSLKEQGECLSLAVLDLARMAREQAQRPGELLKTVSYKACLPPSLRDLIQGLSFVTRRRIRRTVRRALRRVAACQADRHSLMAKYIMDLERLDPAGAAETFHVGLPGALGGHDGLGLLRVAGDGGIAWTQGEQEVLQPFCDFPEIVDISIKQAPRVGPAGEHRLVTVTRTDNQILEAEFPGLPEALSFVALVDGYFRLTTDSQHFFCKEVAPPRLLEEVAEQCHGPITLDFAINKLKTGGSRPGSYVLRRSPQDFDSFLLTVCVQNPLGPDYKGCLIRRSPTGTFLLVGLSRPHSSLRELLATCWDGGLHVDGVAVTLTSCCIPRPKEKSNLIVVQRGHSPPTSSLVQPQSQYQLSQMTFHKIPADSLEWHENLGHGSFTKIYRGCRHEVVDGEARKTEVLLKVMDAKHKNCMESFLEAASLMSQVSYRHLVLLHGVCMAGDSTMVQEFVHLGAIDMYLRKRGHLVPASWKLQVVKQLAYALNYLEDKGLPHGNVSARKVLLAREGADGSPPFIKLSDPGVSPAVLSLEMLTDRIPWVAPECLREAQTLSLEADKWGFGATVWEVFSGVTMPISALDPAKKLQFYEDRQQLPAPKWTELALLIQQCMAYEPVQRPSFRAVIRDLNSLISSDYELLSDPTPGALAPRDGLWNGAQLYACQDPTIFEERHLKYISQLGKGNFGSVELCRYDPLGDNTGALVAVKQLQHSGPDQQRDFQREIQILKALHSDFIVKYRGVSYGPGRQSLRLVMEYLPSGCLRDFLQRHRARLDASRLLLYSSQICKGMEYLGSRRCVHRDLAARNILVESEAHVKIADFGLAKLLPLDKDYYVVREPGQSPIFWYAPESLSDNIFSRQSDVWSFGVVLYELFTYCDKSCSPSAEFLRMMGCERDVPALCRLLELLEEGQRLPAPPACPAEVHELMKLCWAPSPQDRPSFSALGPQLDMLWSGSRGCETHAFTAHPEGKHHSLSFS
Sequence of JAK1 (h) (P23458 whole entry): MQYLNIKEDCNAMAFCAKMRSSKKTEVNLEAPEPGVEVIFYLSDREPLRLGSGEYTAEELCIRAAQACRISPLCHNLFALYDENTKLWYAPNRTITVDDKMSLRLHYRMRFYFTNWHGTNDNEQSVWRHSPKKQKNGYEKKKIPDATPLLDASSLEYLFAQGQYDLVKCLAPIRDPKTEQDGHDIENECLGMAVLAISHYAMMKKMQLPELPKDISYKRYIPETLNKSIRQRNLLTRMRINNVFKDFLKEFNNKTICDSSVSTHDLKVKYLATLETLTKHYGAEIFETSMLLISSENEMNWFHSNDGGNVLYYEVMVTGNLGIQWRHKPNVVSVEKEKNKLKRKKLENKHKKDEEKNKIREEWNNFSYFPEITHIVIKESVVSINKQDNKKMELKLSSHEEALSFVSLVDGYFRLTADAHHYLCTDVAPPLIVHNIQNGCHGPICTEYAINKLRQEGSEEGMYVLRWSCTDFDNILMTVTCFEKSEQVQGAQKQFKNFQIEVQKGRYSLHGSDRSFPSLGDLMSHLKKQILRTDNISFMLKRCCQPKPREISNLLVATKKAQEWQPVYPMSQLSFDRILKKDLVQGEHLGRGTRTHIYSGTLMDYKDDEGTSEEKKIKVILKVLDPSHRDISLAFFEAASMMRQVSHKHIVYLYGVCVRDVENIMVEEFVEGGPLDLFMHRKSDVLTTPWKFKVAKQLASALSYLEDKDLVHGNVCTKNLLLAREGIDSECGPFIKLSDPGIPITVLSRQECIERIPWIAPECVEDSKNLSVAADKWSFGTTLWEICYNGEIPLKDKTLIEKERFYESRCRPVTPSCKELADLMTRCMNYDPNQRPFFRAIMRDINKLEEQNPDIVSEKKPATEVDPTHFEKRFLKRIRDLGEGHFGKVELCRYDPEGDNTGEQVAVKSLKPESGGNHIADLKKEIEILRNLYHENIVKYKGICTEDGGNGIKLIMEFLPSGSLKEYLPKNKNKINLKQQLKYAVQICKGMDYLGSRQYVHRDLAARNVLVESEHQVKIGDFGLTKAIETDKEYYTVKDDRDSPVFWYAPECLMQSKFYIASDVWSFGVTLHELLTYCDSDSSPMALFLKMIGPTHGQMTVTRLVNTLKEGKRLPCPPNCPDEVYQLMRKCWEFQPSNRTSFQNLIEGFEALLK

Row | IC50 (JAK1 (h)) [nM] | SMILES | IC50 (TYK2 (h)) [nM] | IC50 (JAK2 (h)) [nM] | IC50 (JAK3 (h)) [nM] | further results
1 |  | O=C(Nc1nc2cccc(C3=CCC(NC(=O)C4CC4(F)F)CC3)n2n1)C1CC1 (centres unmarked) [Compound 1-7] | 73 | 239 | 3110 | Bioavailability [2]: 75.2%; AUC0-inf [2, 5]: 18.033 µM·h; T1/2 (half-life) [2, 5]: 2.07 h; Cmax [2, 5]: 23.9 µM
2 | 149 | O=C(Nc1nc2cccc(C3=CCC(NC(=O)C4CC4)CC3)n2n1)C1CC1 (centres unmarked) [Compound 1-12] | 497 | 1420 | > 10000 | 
3 |  | O=C(Nc1nc2cccc(C3=CC[C@@H](NC(=O)[C@@H]4CC4(F)F)CC3)n2n1)C1CC1 [Compound 3-1] | 78 | 141 | 5520 | Bioavailability [2]: 30.0%; AUC0-inf [2, 5]: 19.967 µM·h; T1/2 (half-life) [2, 5]: 3.11 h; Cmax [2, 5]: 3.8 µM
4 | 163 | O=C(Nc1nc2cccc(C3=CC[C@@H](NC(=O)[C@H]4CC4(F)F)CC3)n2n1)C1CC1 [Compound 3-2] | 1370 |  |  | 
5 | 166 | O=C(Nc1nc2cccc(C3=CC[C@H](NC(=O)[C@@H]4CC4(F)F)CC3)n2n1)C1CC1 [Compound 3-3] | 942 |  |  | 
6 |  | O=C(Nc1nc2cccc(C3CCC(NC(=O)C4CC4(F)F)CC3)n2n1)C1CC1 (centres unmarked) [Compound 4-2] | 10 |  | 2050 | Bioavailability [2]: 58.6%; AUC0-inf [2, 5]: 11.021 µM·h; T1/2 (half-life) [2, 5]: 2.22 h; Cmax [2, 5]: 13.4 µM
7 | 31 | O=C(Nc1nc2cccc(C3CCC(NC(=O)C4(F)CC4)CC3)n2n1)C1CC1 (centres unmarked) [Compound 4-3] | 127 | 360 | 4380 | average foot volume of arthritis rat [1, 3]: 1.5 mL; clinical score of arthritis rats [1, 4]: 2.6; inhibition at 15 mg/kg ([1]; Rattus norvegicus, po, 336 h, 15 mg/kg p.o. bid 14 d, read-out: inhibition rate relative to the vehicle control group (foot volume curve AUC)): 32.3%; Bioavailability ([2]; blood, po, read-out: Bioavailability): 89.8%; AUC0-inf ([2]; blood, po, tail vein and gavage groups, route of the parameter and dose not given, read-out: AUC0-inf): 85.8 µM·h; Cmax ([2]; blood, po, tail vein and gavage groups, route of the parameter and dose not given): 24.8 µM; half-life ([2]; blood, po, tail vein and gavage groups, route of the parameter and dose not given, read-out: T1/2 (half-life) (converted)): 2.86 h
8 | 90 | O=C(Nc1nc2cccc(C3=CCN(C(=O)C4CC4)CC3)n2n1)C1CC1 [Compound 5-4] | 178 | 422 | > 10000 | 
9 | 70 | O=C(Nc1nc2cccc(C3=CCN(C(=O)C4CC4(F)F)C3)n2n1)C1CC1 (centres unmarked) [Compound 6-1] | 244 |  | > 10000 | 
10 | 531 | O=C(Nc1nc2cccc(C3=CCN(C(=O)C4(F)CC4)C3)n2n1)C1CC1 [Compound 6-2] | 2870 | 1120 | > 10000 | 
11 |  | C[C@@H]1C[C@H]2[C@@H]3CCC4=CC(=O)C=C[C@]4(C)[C@@]3(F)[C@@H](O)C[C@]2(C)[C@@]1(O)C(=O)CO [Dexamethasone, reference compound] |  |  |  | inhibition rate relative to the vehicle control group (foot volume curve AUC) ([1]; 0.3 mg/kg p.o. qd 14 d): 44.9%; average foot volume of arthritis rat ([1]; 0.3 mg/kg p.o. qd 14 d, end of the experiment): 1.1 mL; clinical score of arthritis rats ([1]; 0.3 mg/kg p.o. qd 14 d, from the 23rd day until the end of the experiment): about 2.0

Row | SMILES | IC50 (JAK1 (h)) [nM] | IC50 (TYK2 (h)) [nM] | IC50 (JAK2 (h)) [nM] | IC50 (JAK3 (h)) [nM] | further results
12 | O=C(Nc1nc2cccc(C3CCC(NC(=O)[C@@H]4CC4(F)F)CC3)n2n1)C1CC1 (single isomer, unassigned) [Compound 8-1] | 111 | 633 | 861 | > 10000 | 
13 | O=C(Nc1nc2cccc(C3CCC(NC(=O)[C@H]4CC4(F)F)CC3)n2n1)C1CC1 (single isomer, unassigned) [Compound 8-2] | 2 | 24 |  | 957 | inhibition rate relative to the vehicle control group (foot volume curve AUC) ([1]; 5 mg/kg p.o. bid 14 d): 38.0%; average foot volume of arthritis rat ([1]; 5 mg/kg p.o. bid 14 d, end of the experiment (27th day)): 1.4 mL; inhibition rate relative to the vehicle control group (foot volume curve AUC) ([1]; 15 mg/kg p.o. bid 14 d): 44.5%; average foot volume of arthritis rat [1, 3]: 1.1 mL; clinical score of arthritis rats ([1]; 5 mpk p.o. bid 14 d, end of the experiment (27th day), vehicle peak about 8.5): 2.7; clinical score of arthritis rats [1, 4]: 1.0; body weight of arthritis rats ([1]; dose groups 5 and 15 mg/kg p.o. bid, weight decreased from the 15th to the 17th day): began to recover slowly on the 19th day
14 | O=C(Nc1nc2cccc(C3CCC(NC(=O)[C@@H]4CC4(F)F)CC3)n2n1)C1CC1 (single isomer, unassigned) [Compound 8-3] | 494 | 3440 | 5770 | > 10000 | 
15 | O=C(Nc1nc2cccc(C3CCC(NC(=O)[C@H]4CC4(F)F)CC3)n2n1)C1CC1 (single isomer, unassigned) [Compound 8-4] | 442 | 2440 | 3750 | > 10000 | 
16 | O=C(Nc1nc2cccc(C3=CC[C@H](NC(=O)[C@H]4CC4(F)F)CC3)n2n1)C1CC1 [Compound 3-4] | 17 | 71 | 126 | 2550 | 
17 | O=C(Nc1nc2nccc(C3CCC(NC(=O)C4CC4(F)F)CC3)c2s1)C1CC1 (centres unmarked) [Compound 10-9] | 2290 | 245 | > 10000 | > 10000 | 
